Patent US20250100998A1, “PARP7 INHIBITORS” (Gilead Sciences, Inc., priority 2023, published 2025)

test system: STAT1 (phosphorylated at Tyr701) in NCI-H1373 cells; test: Phospho-STAT1 (Tyr701) LANCE Ultra TR-FRET detection assay; type: cell-based; conditions: Homo sapiens, NCI-H1373, 48 h, induction of pSTAT1 in NCI-H1373 cells, 48 hours incubation; normalized to 10 uM positive control and DMSO; 4-parameter fit; read-out: NH1373 pSTAT1 EC50
Method in brief: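 Endogenous pSTAT1 (Tyr701) induction measured in NCI-H1373 cells seeded onto compound and incubated 48 h at 37 °C. Lysates assayed by LANCE Ultra sandwich TR-FRET; 665/620 nm ratio normalized to 10 uM reference […] (positive) and DMSO (negative). EC50 from 4-parameter fit.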

For `O=c1[nH]ncc(N[C@H]2CCC[C@@H](Cn3cc(F)c4cc(-c5ncc(C(F)(F)F)cn5)c(F)c(F)c4c3=O)C2)c1C(F)(F)F` [Example 33, 4,7,8-trifluoro-2-(((1R,3S)-3-((6-oxo-5-(trifluoromethyl)-1,6-dihydropyridazin-4-yl)amino)cyclohexyl)methyl)-6-(5-(trifluoromethyl)pyrimidin-2-yl)isoquinolin-1(2H)-one], which EC50 is on record?
The EC50 was 1.51 nM.

With `O=c1[nH]ncc(N[C@H]2CCC[C@@H](Cn3ccc4cc(-c5ncc(-n6cccn6)cn5)c(F)cc4c3=O)C2)c1C(F)(F)F` [Example 1, 7-fluoro-2-[[(1R,3S)-3-[[6-oxo-5-(trifluoromethyl)-1H-pyridazin-4-yl]amino]cyclohexyl]methyl]-6-(5-pyrazol-1-ylpyrimidin-2-yl)isoquinolin-1-one] as the compound, how does the EC50 read?
Its EC50 is 6.54 nM.

With `O=c1[nH]ncc(N[C@H]2CCC[C@@H](Cn3cc(F)c4cc(-c5ncc(OC(F)(F)F)cn5)c(F)c(F)c4c3=O)C2)c1C(F)(F)F` [Example 44, 4,7,8-trifluoro-2-[[(1R,3S)-3-[[6-oxo-5-(trifluoromethyl)-1H-pyridazin-4-yl]amino]cyclohexyl]methyl]-6-[5-(trifluoromethoxy)pyrimidin-2-yl]isoquinolin-1-one] as the compound, how does the EC50 read?
Its EC50 is 4.17 nM.

`COc1cnc(-c2cc3c(F)cn(C[C@@H]4CCC[C@H](Nc5cn[nH]c(=O)c5C(F)(F)F)C4)c(=O)c3c(F)c2F)nc1` [Example 35, 4,7,8-trifluoro-6-(5-methoxypyrimidin-2-yl)-2-(((1R,3S)-3-((6-oxo-5-(trifluoromethyl)-1,6-dihydropyridazin-4-yl)amino)cyclohexyl)methyl)isoquinolin-1(2H)-one] was tested. Which EC50 did it give?
The EC50 was 1.45 nM.

For `Cc1nc(-c2cc3ccn(C[C@@H]4CCC[C@H](Nc5cn[nH]c(=O)c5C(F)(F)F)C4)c(=O)c3cc2F)ncc1C(F)(F)F` [Example 6, 7-fluoro-6-(4-methyl-5-(trifluoromethyl)pyrimidin-2-yl)-2-(((1R,3S)-3-((6-oxo-5-(trifluoromethyl)-1,6-dihydropyridazin-4-yl)amino)cyclohexyl)methyl)isoquinolin-1(2H)-one], which EC50 is on record?
The EC50 was 5.13 nM.

For `O=c1[nH]ncc(N[C@H]2CCC[C@@H](Cn3ccc4cc(-c5ncc(OC(F)F)cn5)c(F)cc4c3=O)C2)c1C(F)(F)F` [Example 5, 6-(5-(difluoromethoxy)pyrimidin-2-yl)-7-fluoro-2-(((1R,3S)-3-((6-oxo-5-(trifluoromethyl)-1,6-dihydropyridazin-4-yl)amino)cyclohexyl)methyl)isoquinolin-1(2H)-one], which EC50 is on record?
Its EC50 is 4.74 nM.

With `O=c1[nH]ncc(N[C@@H]2C[C@H](Cn3ccc4cc(-c5ncc(C(F)(F)F)cn5)c(F)cc4c3=O)CC[C@@H]2O)c1C(F)(F)F` (racemic) [Example 68, 7-fluoro-2-(((rac-1R,3R,4S)-4-hydroxy-3-((6-oxo-5-(trifluoromethyl)-1,6-dihydropyridazin-4-yl)amino)cyclohexyl)methyl)-6-(5-(trifluoromethyl)pyrimidin-2-yl)isoquinolin-1(2H)-one] as the compound, how does the EC50 read?
The EC50 was 65.1 nM.

For `CC(O)(c1cnc(-c2cc3ccn(C[C@@H]4CCC[C@H](Nc5cn[nH]c(=O)c5C(F)(F)F)C4)c(=O)c3c(F)c2F)nc1)C(F)F` (stereo partly drawn) [Example 28, 6-(5-(1,1-difluoro-2-hydroxypropan-2-yl)pyrimidin-2-yl)-7,8-difluoro-2-(((1R,3S)-3-((6-oxo-5-(trifluoromethyl)-1,6-dihydropyridazin-4-yl)amino)cyclohexyl)methyl)isoquinolin-1(2H)-one], which EC50 is on record?
Its EC50 is 5.84 nM.

With `O=c1[nH]ncc(N[C@H]2CCC[C@@H](Cn3cc(F)c4cc(-c5ncc(OCCO)cn5)c(F)cc4c3=O)C2)c1C(F)(F)F` [Example 38] as the compound, how does the EC50 read?
The EC50 was 12.5 nM.

With `COc1nc(-c2cc3ccn(C[C@@H]4CCC[C@H](Nc5cn[nH]c(=O)c5C(F)(F)F)C4)c(=O)c3cc2F)ncc1C#N` [Example 3, 2-(7-fluoro-1-oxo-2-(((1R,3S)-3-((6-oxo-5-(trifluoromethyl)-1,6-dihydropyridazin-4-yl)amino)cyclohexyl)methyl)-1,2-dihydroisoquinolin-6-yl)-4-methoxypyrimidine-5-carbonitrile] as the compound, how does the EC50 read?
Its EC50 is 3.85 nM.

With `CC(F)(F)c1cnc(-c2cc3ccn(C[C@@H]4CCC[C@H](Nc5cn[nH]c(=O)c5C(F)(F)F)C4)c(=O)c3c(F)c2F)nc1` [Example 20, 6-(5-(1,1-difluoroethyl)pyrimidin-2-yl)-7,8-difluoro-2-(((1R,3S)-3-((6-oxo-5-(trifluoromethyl)-1,6-dihydropyridazin-4-yl)amino)cyclohexyl)methyl)isoquinolin-1(2H)-one] as the compound, how does the EC50 read?
The EC50 was 1.61 nM.

Which EC50 does the source give for `COc1cnc(-c2cc3c(Cl)cn(C[C@@H]4CCC[C@H](Nc5cn[nH]c(=O)c5C(F)(F)F)C4)c(=O)c3cc2F)nc1` [Example 58, 4-chloro-7-fluoro-6-(5-methoxypyrimidin-2-yl)-2-[[(1R,3S)-3-[[6-oxo-5-(trifluoromethyl)-1H-pyridazin-4-yl]amino]cyclohexyl]methyl]isoquinolin-1-one] here?
The EC50 was 5.91 nM.

How did the EC50 turn out when `O=c1[nH]ncc(N[C@H]2C[C@@H](Cn3ccc4cc(-c5ncc(C(F)(F)F)cn5)c(F)cc4c3=O)CC(F)(F)C2)c1C(F)(F)F` (single isomer, unassigned) [Example 67] was run?
Its EC50 is 100 nM.

How did the EC50 turn out when `CS(=O)(=O)c1cnc(-c2cc3c(F)cn(C[C@@H]4CCC[C@H](Nc5cn[nH]c(=O)c5C(F)(F)F)C4)c(=O)c3c(F)c2F)nc1` [Example 41] was run?
Its EC50 is 3.25 nM.

With `O=c1[nH]ncc(N[C@H]2CCC[C@@H](Cn3ccc4cc(-c5ncc(OCCO)cn5)c(F)c(F)c4c3=O)C2)c1C(F)(F)F` [Example 47, 7,8-difluoro-6-(5-(2-hydroxyethoxy)pyrimidin-2-yl)-2-(((1R,3S)-3-((6-oxo-5-(trifluoromethyl)-1,6-dihydropyridazin-4-yl)amino)cyclohexyl)methyl)isoquinolin-1(2H)-one] as the compound, how does the EC50 read?
The EC50 was 4.86 nM.

For `N#Cc1cnc(-c2cc3ccn(C[C@@H]4CCC[C@H](Nc5cn[nH]c(=O)c5C(F)(F)F)C4)c(=O)c3cc2F)nc1` [Example 2, 2-(7-fluoro-1-oxo-2-(((1R,3S)-3-((6-oxo-5-(trifluoromethyl)-1,6-dihydropyridazin-4-yl)amino)cyclohexyl)methyl)-1,2-dihydroisoquinolin-6-yl)pyrimidine-5-carbonitrile], which EC50 is on record?
The EC50 was 11.8 nM.

For `O=c1[nH]ncc(N[C@H]2CCC[C@@H](Cn3ccc4cc(-c5ncc(OC(F)F)cn5)c(F)c(F)c4c3=O)C2)c1C(F)(F)F` [Example 21, 6-(5-(difluoromethoxy)pyrimidin-2-yl)-7,8-difluoro-2-(((1R,3S)-3-((6-oxo-5-(trifluoromethyl)-1,6-dihydropyridazin-4-yl)amino)cyclohexyl)methyl)isoquinolin-1(2H)-one], which EC50 is on record?
Its EC50 is 1.52 nM.

Which EC50 does the source give for `N#Cc1cnc(-c2cc3ccn(C[C@@H]4CCC[C@H](Nc5cn[nH]c(=O)c5C(F)(F)F)C4)c(=O)c3c(F)c2F)nc1` [Example 29, 2-(7,8-difluoro-1-oxo-2-(((1R,3S)-3-((6-oxo-5-(trifluoromethyl)-1,6-dihydropyridazin-4-yl)amino)cyclohexyl)methyl)-1,2-dihydroisoquinolin-6-yl)pyrimidine-5-carbonitrile] here?
The EC50 was 1.8 nM.

`O=c1[nH]ncc(N[C@H]2C[C@@H](O)C[C@@H](Cn3ccc4cc(-c5ncc(C(F)(F)F)cn5)c(F)cc4c3=O)C2)c1C(F)(F)F` [Example 62, 7-fluoro-2-[[(1S,3S,5R)-3-hydroxy-5-[[6-oxo-5-(trifluoromethyl)-1H-pyridazin-4-yl]amino]cyclohexyl]methyl]-6-[5-(trifluoromethyl)pyrimidin-2-yl]isoquinolin-1-one] was tested. Which EC50 did it give?
Its EC50 is 90 nM.

How did the EC50 turn out when `[2H]C([2H])([2H])Oc1cnc(-c2cc3c(cc2F)C(=O)N(C[C@@H]2CCC[C@H](Nc4cn[nH]c(=O)c4C(F)(F)F)C2)CC3)nc1` [Example 71, 7-fluoro-2-[[(1R,3S)-3-[[6-oxo-5-(trifluoromethyl)-1H-pyridazin-4-yl]amino]cyclohexyl]methyl]-6-[5-(trideuteriomethoxy)pyrimidin-2-yl]-3,4-dihydroisoquinolin-1-one] was run?
Its EC50 is 7.6 nM.

Which EC50 does the source give for `COc1cnc(-c2cc3c(cc2F)C(=O)N(C[C@@H]2CCC[C@H](Nc4cn[nH]c(=O)c4C(F)(F)F)C2)CC3)nc1` [Example 70, 7-fluoro-6-(5-methoxypyrimidin-2-yl)-2-(((1R,3S)-3-((6-oxo-5-(trifluoromethyl)-1,6-dihydropyridazin-4-yl)amino)cyclohexyl)methyl)-3,4-dihydroisoquinolin-1(2H)-one] here?
Its EC50 is 11.1 nM.

For `CS(=N)(=O)c1cnc(-c2cc3ccn(C[C@@H]4CCC[C@H](Nc5cn[nH]c(=O)c5C(F)(F)F)C4)c(=O)c3c(F)c2F)nc1` (stereo partly drawn) [Example 24, 7,8-difluoro-6-(5-(methylsulfonimidoyl)pyrimidin-2-yl)-2-(((1R,3S)-3-((6-oxo-5-(trifluoromethyl)-1,6-dihydropyridazin-4-yl)amino)cyclohexyl)methyl)isoquinolin-1(2H)-one], which EC50 is on record?
The EC50 was 38.1 nM.
